According to the NIST ThermoML archive (doi:10.1016/j.fluid.2014.10.016):
Numbers after ± are expanded uncertainties.

Columns and labels:
[1] = 313.15 K; Liquid; Closed cell (Static) method
[2] = excess molar enthalpy (molar enthalpy of mixing); xn = mol fraction of the nth substance listed; details: 101 kPa, Liquid, Flow calorimetry

CC(C)CC(C)(C)C [2,2,4-trimethylpentane]
vapor or sublimation pressure [1]: 12.97 ± 0.031 kPa

CC(C)CC(C)(C)C [2,2,4-trimethylpentane] + CCCC(C)O
excess molar enthalpy ([2]; 298.15 K, x2 = 0): 0 ± 0.000239 kcal/mol
excess molar enthalpy ([2]; 313.15 K, x2 = 0): 0 ± 0.000239 kcal/mol

CCCCCCC [heptane]
vapor or sublimation pressure [1]: 12.31 ± 0.03 kPa

CCCCCCC [heptane] + CCCC(C)O
excess molar enthalpy ([2]; 298.15 K, x2 = 0): 0 ± 0.000239 kcal/mol
excess molar enthalpy ([2]; 313.15 K, x2 = 0): 0 ± 0.000239 kcal/mol

CCCC(C)O (configuration not stated) [pentan-2-ol]
vapor or sublimation pressure [1]: 2.295 ± 0.015 kPa

CCCC(C)O (configuration not stated) [pentan-2-ol] + CC(C)CC(C)(C)C
excess molar enthalpy ([2]; 298.15 K, x1 = 0.0507): 0.114 ± 0.00153 kcal/mol
excess molar enthalpy ([2]; 298.15 K, x1 = 0.0997): 0.154 ± 0.00198 kcal/mol
excess molar enthalpy ([2]; 298.15 K, x1 = 0.1498): 0.173 ± 0.00222 kcal/mol
excess molar enthalpy ([2]; 298.15 K, x1 = 0.2009): 0.19 ± 0.00239 kcal/mol
excess molar enthalpy ([2]; 298.15 K, x1 = 0.25): 0.202 ± 0.00263 kcal/mol
excess molar enthalpy ([2]; 298.15 K, x1 = 0.3022): 0.213 ± 0.00263 kcal/mol
excess molar enthalpy ([2]; 298.15 K, x1 = 0.3503): 0.22 ± 0.00287 kcal/mol
excess molar enthalpy ([2]; 298.15 K, x1 = 0.4011): 0.227 ± 0.00287 kcal/mol
excess molar enthalpy ([2]; 298.15 K, x1 = 0.4521): 0.229 ± 0.00287 kcal/mol
excess molar enthalpy ([2]; 298.15 K, x1 = 0.5011): 0.229 ± 0.00287 kcal/mol
excess molar enthalpy ([2]; 298.15 K, x1 = 0.5521): 0.22 ± 0.00287 kcal/mol
excess molar enthalpy ([2]; 298.15 K, x1 = 0.601): 0.21 ± 0.00263 kcal/mol
excess molar enthalpy ([2]; 298.15 K, x1 = 0.6517): 0.196 ± 0.00239 kcal/mol
excess molar enthalpy ([2]; 298.15 K, x1 = 0.7019): 0.177 ± 0.00227 kcal/mol
excess molar enthalpy ([2]; 298.15 K, x1 = 0.7517): 0.155 ± 0.00201 kcal/mol
excess molar enthalpy ([2]; 298.15 K, x1 = 0.8009): 0.128 ± 0.00167 kcal/mol
excess molar enthalpy ([2]; 298.15 K, x1 = 0.851): 0.0997 ± 0.00134 kcal/mol
excess molar enthalpy ([2]; 298.15 K, x1 = 0.9002): 0.0677 ± 0.000956 kcal/mol
excess molar enthalpy ([2]; 298.15 K, x1 = 0.95): 0.0338 ± 0.00055 kcal/mol
excess molar enthalpy ([2]; 298.15 K, x1 = 1): 0 ± 0.000239 kcal/mol
excess molar enthalpy ([2]; 313.15 K, x1 = 0.0507): 0.146 ± 0.00194 kcal/mol
excess molar enthalpy ([2]; 313.15 K, x1 = 0.0998): 0.196 ± 0.00263 kcal/mol
excess molar enthalpy ([2]; 313.15 K, x1 = 0.1499): 0.224 ± 0.00287 kcal/mol
excess molar enthalpy ([2]; 313.15 K, x1 = 0.2009): 0.243 ± 0.00311 kcal/mol
excess molar enthalpy ([2]; 313.15 K, x1 = 0.2499): 0.258 ± 0.00335 kcal/mol
excess molar enthalpy ([2]; 313.15 K, x1 = 0.3023): 0.268 ± 0.00335 kcal/mol
excess molar enthalpy ([2]; 313.15 K, x1 = 0.3502): 0.271 ± 0.00335 kcal/mol
excess molar enthalpy ([2]; 313.15 K, x1 = 0.401): 0.273 ± 0.00335 kcal/mol
excess molar enthalpy ([2]; 313.15 K, x1 = 0.452): 0.272 ± 0.00335 kcal/mol
excess molar enthalpy ([2]; 313.15 K, x1 = 0.501): 0.267 ± 0.00335 kcal/mol
excess molar enthalpy ([2]; 313.15 K, x1 = 0.552): 0.26 ± 0.00335 kcal/mol
excess molar enthalpy ([2]; 313.15 K, x1 = 0.601): 0.248 ± 0.00311 kcal/mol
excess molar enthalpy ([2]; 313.15 K, x1 = 0.6516): 0.231 ± 0.00287 kcal/mol
excess molar enthalpy ([2]; 313.15 K, x1 = 0.7018): 0.211 ± 0.00263 kcal/mol
excess molar enthalpy ([2]; 313.15 K, x1 = 0.7516): 0.185 ± 0.00237 kcal/mol
excess molar enthalpy ([2]; 313.15 K, x1 = 0.8008): 0.158 ± 0.00203 kcal/mol
excess molar enthalpy ([2]; 313.15 K, x1 = 0.851): 0.122 ± 0.0016 kcal/mol
excess molar enthalpy ([2]; 313.15 K, x1 = 0.9002): 0.0855 ± 0.00117 kcal/mol
excess molar enthalpy ([2]; 313.15 K, x1 = 0.95): 0.0441 ± 0.000669 kcal/mol
excess molar enthalpy ([2]; 313.15 K, x1 = 1): 0 ± 0.000239 kcal/mol

CCCC(C)O (configuration not stated) [pentan-2-ol] + CCCCCCC
excess molar enthalpy ([2]; 298.15 K, x1 = 0.0505): 0.117 ± 0.00158 kcal/mol
excess molar enthalpy ([2]; 298.15 K, x1 = 0.0997): 0.151 ± 0.00196 kcal/mol
excess molar enthalpy ([2]; 298.15 K, x1 = 0.1477): 0.173 ± 0.00222 kcal/mol
excess molar enthalpy ([2]; 298.15 K, x1 = 0.1969): 0.19 ± 0.00239 kcal/mol
excess molar enthalpy ([2]; 298.15 K, x1 = 0.2472): 0.203 ± 0.00263 kcal/mol
excess molar enthalpy ([2]; 298.15 K, x1 = 0.2962): 0.211 ± 0.00263 kcal/mol
excess molar enthalpy ([2]; 298.15 K, x1 = 0.346): 0.219 ± 0.00287 kcal/mol
excess molar enthalpy ([2]; 298.15 K, x1 = 0.3967): 0.225 ± 0.00287 kcal/mol
excess molar enthalpy ([2]; 298.15 K, x1 = 0.4459): 0.227 ± 0.00287 kcal/mol
excess molar enthalpy ([2]; 298.15 K, x1 = 0.4958): 0.226 ± 0.00287 kcal/mol
excess molar enthalpy ([2]; 298.15 K, x1 = 0.5463): 0.221 ± 0.00287 kcal/mol
excess molar enthalpy ([2]; 298.15 K, x1 = 0.5972): 0.212 ± 0.00263 kcal/mol
excess molar enthalpy ([2]; 298.15 K, x1 = 0.6466): 0.2 ± 0.00263 kcal/mol
excess molar enthalpy ([2]; 298.15 K, x1 = 0.6963): 0.181 ± 0.00232 kcal/mol
excess molar enthalpy ([2]; 298.15 K, x1 = 0.748): 0.159 ± 0.00206 kcal/mol
excess molar enthalpy ([2]; 298.15 K, x1 = 0.7981): 0.132 ± 0.00172 kcal/mol
excess molar enthalpy ([2]; 298.15 K, x1 = 0.8483): 0.103 ± 0.00136 kcal/mol
excess molar enthalpy ([2]; 298.15 K, x1 = 0.8985): 0.0706 ± 0.00098 kcal/mol
excess molar enthalpy ([2]; 298.15 K, x1 = 0.9486): 0.0359 ± 0.000574 kcal/mol
excess molar enthalpy ([2]; 298.15 K, x1 = 1): 0 ± 0.000239 kcal/mol
excess molar enthalpy ([2]; 313.15 K, x1 = 0.0504): 0.146 ± 0.00194 kcal/mol
excess molar enthalpy ([2]; 313.15 K, x1 = 0.0996): 0.197 ± 0.00263 kcal/mol
excess molar enthalpy ([2]; 313.15 K, x1 = 0.1475): 0.223 ± 0.00287 kcal/mol
excess molar enthalpy ([2]; 313.15 K, x1 = 0.1967): 0.242 ± 0.00311 kcal/mol
excess molar enthalpy ([2]; 313.15 K, x1 = 0.2469): 0.256 ± 0.00335 kcal/mol
excess molar enthalpy ([2]; 313.15 K, x1 = 0.2956): 0.265 ± 0.00335 kcal/mol
excess molar enthalpy ([2]; 313.15 K, x1 = 0.3455): 0.27 ± 0.00335 kcal/mol
excess molar enthalpy ([2]; 313.15 K, x1 = 0.3962): 0.273 ± 0.00335 kcal/mol
excess molar enthalpy ([2]; 313.15 K, x1 = 0.4454): 0.273 ± 0.00335 kcal/mol
excess molar enthalpy ([2]; 313.15 K, x1 = 0.4953): 0.27 ± 0.00335 kcal/mol
excess molar enthalpy ([2]; 313.15 K, x1 = 0.5458): 0.263 ± 0.00335 kcal/mol
excess molar enthalpy ([2]; 313.15 K, x1 = 0.5968): 0.251 ± 0.00311 kcal/mol
excess molar enthalpy ([2]; 313.15 K, x1 = 0.6462): 0.237 ± 0.00311 kcal/mol
excess molar enthalpy ([2]; 313.15 K, x1 = 0.6959): 0.214 ± 0.00263 kcal/mol
excess molar enthalpy ([2]; 313.15 K, x1 = 0.7477): 0.19 ± 0.00239 kcal/mol
excess molar enthalpy ([2]; 313.15 K, x1 = 0.7979): 0.161 ± 0.00208 kcal/mol
excess molar enthalpy ([2]; 313.15 K, x1 = 0.8481): 0.127 ± 0.00165 kcal/mol
excess molar enthalpy ([2]; 313.15 K, x1 = 0.8984): 0.088 ± 0.0012 kcal/mol
excess molar enthalpy ([2]; 313.15 K, x1 = 0.9485): 0.0461 ± 0.000693 kcal/mol
excess molar enthalpy ([2]; 313.15 K, x1 = 1): 0 ± 0.000239 kcal/mol
